Assay results from PMC11171218, “N-Benzylated 5-Hydroxybenzothiophene-2-carboxamides as Multi-Targeted Clk/Dyrk Inhibitors and Potential Anticancer Agents” (Cancers, 2024).

Key:
Dyrk1A = Dyrk1A (Homo sapiens, UniProt Q13627); test: Z'-LYTE kinase inhibition assay, Dyrk1A; type: biochemical; details: for inhibition at 1 µM: read-out: Dyrk1A % Inh. At 1 µM; for IC50: ATP conc. equivalent to Km
Excerpt: (§1) 3. Experimental procedure for protein kinases and inhibition assays.
(§2) 3.1 The Z ́ -LYTE biochemical assay for screening and IC 50 determination for Clk1, Dyrk1A, Dyrk1B, Clk2 and Clk3 kinases.
(§3) The assay employs a fluorescence-based, coupled-enzyme format and is based on the differential sensitivity of phosphorylated and non-phosphorylated peptides to proteolytic cleavage. The peptide substrate is labeled with two fluorophores-one at each end-that make up a FRET pair. In the primary reaction, the kinase transfers the gamma-phosphate of ATP to a single tyrosine, serine, or threonine residue in a synthetic FRET-peptide. In the secondary reaction, a site-specific protease recognizes and cleaves non-phosphorylated FRET-peptides. Phosphorylation of FRET-peptides suppresses cleavage by the Development Reagent. Cleavage disrupts FRET between the donor (i.e., coumarin) and acceptor (i.e., fluorescein) fluorophores on the FRET-peptide, whereas uncleaved, phosphorylated FRET-peptides maintain FRET. A ratiometric method, which calculates the ratio (the Emission Ratio) of donor emission to acceptor emission after excitation of the donor fluorophore at 400 nm, is used to quantitate reaction progress. Both cleaved and uncleaved FRET-peptides contribute to the fluorescence signals and therefore to the Emission Ratio. The extent of phosphorylation of the FRET-peptide can be calculated from the Emission Ratio. The Emission Ratio will remain low if the FRET-peptide is phosphorylated (i.e., no kinase inhibition) and will be high if the FRET-peptide is non-phosphorylated (i.e., kinase inhibition).
(§4) The IC 50 values were determined for compounds displaying significant % inhibition in the screening step. IC 50 determination was done through testing at a range of concentrations with two […]
(§5) two independent experiments. […]
3.1.2 Dyrk1A kinase assay specific conditions:
The 2x Dyrk1A / Ser/Thr 18 mixture is prepared in 50 mM HEPES pH 7.5, 0.01% BRIJ-35, 10 […]
2 µM Ser/Thr 18 in 50 mM HEPES pH 7.5, 0.01% BRIJ-35, 10 mM MgCl 2, 1 mM EGTA. […]
(§6) Development Reagent A is added. […]
(§7) MgCl2, 1 mM EGTA, 0.02% NaN3. […]

Clk1 = Clk1 (Homo sapiens, UniProt P49759); test: Z'-LYTE kinase inhibition assay, Clk1; type: biochemical; details: for inhibition at 1 µM: read-out: Clk1 % Inh. At 1 µM; for IC50: ATP conc. equivalent to Km
Clk1, sequence (P49759 whole entry): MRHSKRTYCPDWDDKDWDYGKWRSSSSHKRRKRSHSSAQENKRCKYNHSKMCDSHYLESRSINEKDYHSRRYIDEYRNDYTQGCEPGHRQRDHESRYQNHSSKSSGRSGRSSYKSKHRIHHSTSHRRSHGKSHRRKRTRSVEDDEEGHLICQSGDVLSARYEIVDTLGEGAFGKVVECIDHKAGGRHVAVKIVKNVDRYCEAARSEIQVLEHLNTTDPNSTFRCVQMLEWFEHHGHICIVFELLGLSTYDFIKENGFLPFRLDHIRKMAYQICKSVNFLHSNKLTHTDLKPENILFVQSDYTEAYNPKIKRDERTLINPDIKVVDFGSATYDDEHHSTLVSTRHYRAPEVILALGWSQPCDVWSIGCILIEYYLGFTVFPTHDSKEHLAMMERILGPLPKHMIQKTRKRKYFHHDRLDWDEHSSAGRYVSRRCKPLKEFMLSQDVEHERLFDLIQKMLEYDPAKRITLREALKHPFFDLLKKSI
Excerpt: as §1, §2, §3, §4
two independent experiments.
3.1.1 Clk1 kinase assay specific conditions:
The 2x Clk1 / Ser/Thr 09 mixture is prepared in 50 mM HEPES pH 7.5, 0.01% BRIJ-35, 10 mM MgCl 2, 1 mM EGTA. The final 10 μL kinase reaction consists of 30 - 120 ng Clk1 and 2 μM Ser/Thr 09 in 50 mM HEPES pH 7.5, 0.01% BRIJ-35, 10 mM MgCl 2, 1 mM EGTA. After the 1 h

Dyrk1B = Dyrk1B (Homo sapiens, UniProt Q9Y463); test: Z'-LYTE kinase inhibition assay, Dyrk1B; type: biochemical; details: for inhibition at 1 µM: read-out: Dyrk1B % Inh. At 1 µM; for IC50: ATP conc. equivalent to Km
Dyrk1B, sequence (Q9Y463 whole entry): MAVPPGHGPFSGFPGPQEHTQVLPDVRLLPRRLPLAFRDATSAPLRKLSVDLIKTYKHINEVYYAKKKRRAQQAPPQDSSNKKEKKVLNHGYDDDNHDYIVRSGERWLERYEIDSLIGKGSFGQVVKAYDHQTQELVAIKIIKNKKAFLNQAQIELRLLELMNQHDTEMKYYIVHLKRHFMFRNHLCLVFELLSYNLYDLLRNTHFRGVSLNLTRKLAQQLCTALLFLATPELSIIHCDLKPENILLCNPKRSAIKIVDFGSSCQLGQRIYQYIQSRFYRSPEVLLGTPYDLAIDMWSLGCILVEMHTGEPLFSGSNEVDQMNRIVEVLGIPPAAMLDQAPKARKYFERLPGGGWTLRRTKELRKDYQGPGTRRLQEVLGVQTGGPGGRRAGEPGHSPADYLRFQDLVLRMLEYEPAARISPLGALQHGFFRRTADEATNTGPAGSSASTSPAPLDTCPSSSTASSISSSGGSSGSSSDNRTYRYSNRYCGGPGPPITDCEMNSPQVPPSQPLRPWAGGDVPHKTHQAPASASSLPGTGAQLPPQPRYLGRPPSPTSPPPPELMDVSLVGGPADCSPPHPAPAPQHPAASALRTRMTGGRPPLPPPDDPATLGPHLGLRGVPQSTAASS
Excerpt: as §1, §2, §3, §4, §5
3.1.3 Dyrk1B kinase assay specific conditions:
The 2X Dyrk1B / Ser/Thr 18 mixture is prepared in 50 mM HEPES pH 6.5, 0.01% BRIJ-35, 10 […]
mM MgCl2, 1 mM EGTA, 0.02% NaN3.
as §6, §7

Structure (SMILES)	inhibition at 1 µM (Dyrk1A)	inhibition at 1 µM (Clk1)	inhibition at 1 µM (Dyrk1B)	melting point	IC50 (Clk1)	IC50 (Dyrk1B)	IC50 (Dyrk1A)
O=C(NCc1ccc(F)cc1F)c1cc2cc(O)ccc2s1 [Compound 16, N-(2,4-Difluorobenzyl)-5-hydroxybenzo[b]thiophene-2-carboxamide]	40%	50%	53%				
O=C(NCc1cc(Cl)cc(Cl)c1)c1cc2cc(O)ccc2s1 [Compound 14, N-(3,5-Dichlorobenzyl)-5-hydroxybenzo[b]thiophene-2-carboxamide]	41%	61%	12%	189.4 to 192.1 °C	0.744 µM		
O=C(NCc1ccc(F)cc1)c1cc2cc(O)ccc2s1 [Compound 7, N-(4-Fluorobenzyl)-5-hydroxybenzo[b]thiophene-2-carboxamide]	26%	50%	38%	195 to 197.2 °C			
Cc1cccc(CNC(=O)c2cc3cc(O)ccc3s2)c1 [Compound 9, 5-Hydroxy-N-(3-methylbenzyl)benzo[b]thiophene-2-carboxamide]	33%	61%	40%	176.3 to 178.4 °C	0.787 µM		
Cc1ccc(CNC(=O)c2cc3cc(O)ccc3s2)cc1 [Compound 10, 5-Hydroxy-N-(4-methylbenzyl)benzo[b]thiophene-2-carboxamide]	8%	30%	0%	186.6 to 187.6 °C			
COc1ccc(CNC(=O)c2cc3cc(O)ccc3s2)cc1 [Compound 13, 5-Hydroxy-N-(4-methoxybenzyl)benzo[b]thiophene-2-carboxamide]	9%	17%	16%	176.5 to 178 °C			
O=C(NCc1ccccc1)c1cc2cc(O)ccc2s1 [Compound 1, N-Benzyl-5-hydroxybenzo[b]thiophene-2-carboxamide]	46%	60%	60%		0.74 µM	0.833 µM	
O=C(NCc1ccc(Cl)cc1)c1cc2cc(O)ccc2s1 [Compound 4, N-(4-Chlorobenzyl)-5-hydroxybenzo[b]thiophene-2-carboxamide]	7%	40%	0%	182 to 183.7 °C			
Cc1ccccc1CNC(=O)c1cc2cc(O)ccc2s1 [Compound 8, 5-Hydroxy-N-(2-methylbenzyl)benzo[b]thiophene-2-carboxamide]	61%	63%	48%	159.1 to 161.2 °C	0.594 µM		0.853 µM
O=C(NCc1cccc(F)c1F)c1cc2cc(O)ccc2s1 [Compound 15, N-(2,3-Difluorobenzyl)-5-hydroxybenzo[b]thiophene-2-carboxamide]	53%	61%	61%	199.7 to 201.9 °C	0.779 µM	0.645 µM	
O=C(NCc1ccccc1F)c1cc2cc(O)ccc2s1 [Compound 5, N-(2-Fluorobenzyl)-5-hydroxybenzo[b]thiophene-2-carboxamide]	48%	63%	62%	199.8 to 201.7 °C	0.778 µM	0.722 µM	
O=C(NCc1ccccc1Cl)c1cc2cc(O)ccc2s1 [Compound 2, N-(2-Chlorobenzyl)-5-hydroxybenzo[b]thiophene-2-carboxamide]	61%	61%	46%	140.2 to 142 °C	0.769 µM		0.7 µM

Continued, values first:

inhibition at 1 µM (Dyrk1A)	inhibition at 1 µM (Clk1)	inhibition at 1 µM (Dyrk1B)	melting point	IC50 (Clk1)	IC50 (Dyrk1B)	IC50 (Dyrk1A)	Structure (SMILES)
9%	43%	17%	163.3 to 164.5 °C				COc1ccc(CNC(=O)c2cc3cc(O)ccc3s2)c(OC)c1 [Compound 21, N-(2,4-Dimethoxybenzyl)-5-hydroxybenzo[b]thiophene-2-carboxamide]
8%	18%	16%	188.3 to 190.3 °C				COc1ccc(CNC(=O)c2cc3cc(O)ccc3s2)cc1OC [Compound 22, N-(3,4-Dimethoxybenzyl)-5-hydroxybenzo[b]thiophene-2-carboxamide]
53%	60%	61%	139.6 to 141.4 °C	0.705 µM	0.703 µM		O=C(NCc1cccs1)c1cc2cc(O)ccc2s1 [Compound 27, 5-Hydroxy-N-(thiophen-2-ylmethyl)benzo[b]thiophene-2-carboxamide]
13%	62%	24%	224.9 to 226 °C	0.608 µM			O=C(c1cc2cc(O)ccc2s1)N1Cc2ccc(Cl)cc2C1 [Compound 25, (5-Chloroisoindolin-2-yl)(5-hydroxybenzo[b]thiophen-2-yl)methanone]
34%	47%	39%	198 to 200.8 °C				O=C(NCc1cccnc1)c1cc2cc(O)ccc2s1 [Compound 26, 5-Hydroxy-N-(pyridin-3-ylmethyl)benzo[b]thiophene-2-carboxamide]
20%	74%	40%	211.4 to 213 °C	0.35 µM			O=C(NCCc1c[nH]c2ccccc12)c1cc2cc(O)ccc2s1 [Compound 30, N-(2-(1H-Indol-3-yl)ethyl)-5-hydroxybenzo[b]thiophene-2-carboxamide]
29%	61%	48%	99.2 to 101.1 °C	0.753 µM			O=C(NCCc1ccccc1)c1cc2cc(O)ccc2s1 [Compound 29, 5-Hydroxy-N-phenethylbenzo[b]thiophene-2-carboxamide]
14%	21%	19%	181.1 to 183.3 °C				COc1cccc(CNC(=O)c2cc3cc(O)ccc3s2)c1OC [Compound 20, N-(2,3-Dimethoxybenzyl)-5-hydroxybenzo[b]thiophene-2-carboxamide]
12%	22%	22%					COc1cc(CNC(=O)c2cc3cc(O)ccc3s2)cc(OC)c1 [Compound 23, N-(3,5-Dimethoxybenzyl)-5-hydroxybenzo[b]thiophene-2-carboxamide]
22%	53%	0%	140.2 to 141.8 °C				Cc1cc(C)cc(CNC(=O)c2cc3cc(O)ccc3s2)c1 [Compound 19, N-(3,5-Dimethylbenzyl)-5-hydroxybenzo[b]thiophene-2-carboxamide]
12%	33%	21%	198.8 to 200.8 °C				O=C(c1cc2cc(O)ccc2s1)N1CCc2ccccc2C1 [Compound 24, (3,4-Dihydroisoquinolin-2(1H)-yl)(5-hydroxybenzo[b]thiophen-2-yl)methanone]
8%	26%	0%	199 to 201 °C				O=C(NCc1cc(C(F)(F)F)cc(C(F)(F)F)c1)c1cc2cc(O)ccc2s1 [Compound 18, N-(3,5-Bis(trifluoromethyl)benzyl)-5-hydroxybenzo[b]thiophene-2-carboxamide]
66%	61%	52%	99.2 to 101.6 °C	0.585 µM		0.779 µM	O=C(NCc1ccco1)c1cc2cc(O)ccc2s1 [Compound 28, N-(Furan-2-Ylmethyl)-5-hydroxybenzo[b]thiophene-2-carboxamide]
